Test results published in ChEMBL document CHEMBL1140503, “Discovery of 1,1-dioxo-1,2,6-thiadiazine-5-carboxamide derivatives as cannabinoid-like molecules with agonist and antagonist activity” (Bioorg Med Chem, 2007).
Activity calls are given as the source filed them. The rule behind the calls is not given here.

Columns and labels:
[1] = biological target: Cannabinoid receptor 1 (Mus musculus) (UniProt P47746); experiment: (§1) Agonist activity at CB1 receptor in ICR mouse vas deferens assessed as inhibition of electrically-stimulated contraction; type: functional, tissue-based
Cannabinoid receptor 1 [2] = biological target: T1, Cannabinoid receptor 1 (Mus musculus, UniProt P47746); experiment: as §1; type: functional, tissue-based
[3] = Antagonism of WIN-55212-2 mediated antinociceptive activity in ICR mouse at 1 mg/kg ip dose; type: functional, organism-based; parameters: dose 1 mg/kg; conditions: filed as antagonist
Mus musculus [4] = experiment: Increase in locomotory activity in ICR mouse at 20 mg/kg, ip; type: functional, organism-based; parameters: dose 20 mg/kg
Mus musculus [5] = experiment: Effect on cannabinoid behavioral sign in ICR mouse at 0.2 mg/kg, icv; type: functional, organism-based; parameters: dose 0.2 mg/kg
Mus musculus [6] = experiment: Inhibition of spontaneous motility in ICR mouse at 1.5 mg/kg, ip; type: functional, organism-based; parameters: dose 1.5 mg/kg
Mus musculus [7] = experiment: Induction of catalepsy in ICR mouse at 1.5 mg/kg, ip by ring test; type: functional, organism-based; parameters: dose 1.5 mg/kg
Mus musculus [8] = experiment: Induction of hypothermic effect in ICR mouse at 1.5 mg/kg, ip; type: functional, organism-based; parameters: dose 1.5 mg/kg
Mus musculus [9] = experiment: Prevention of spontaneous activity reduction in ICR mouse at 1 mg/kg, ip; type: functional, organism-based; parameters: dose 1 mg/kg
Mus musculus [10] = experiment: Antinociceptive activity in ICR mouse at 1.5 mg/kg, ip by hot plate test; type: functional, organism-based; parameters: dose 1.5 mg/kg
Cannabinoid receptor 1 [11] = biological target: T1, Cannabinoid receptor 1; experiment: Antagonist activity at CB1 receptor in ICR mouse vas deferens assessed as reversal of WIN-55212-2-induced effect on electrically-stimulated contraction; type: functional, tissue-based; conditions: read-out: pA2 (converted)

Chain of Cannabinoid receptor 1 (Mus musculus) (P47746 whole entry): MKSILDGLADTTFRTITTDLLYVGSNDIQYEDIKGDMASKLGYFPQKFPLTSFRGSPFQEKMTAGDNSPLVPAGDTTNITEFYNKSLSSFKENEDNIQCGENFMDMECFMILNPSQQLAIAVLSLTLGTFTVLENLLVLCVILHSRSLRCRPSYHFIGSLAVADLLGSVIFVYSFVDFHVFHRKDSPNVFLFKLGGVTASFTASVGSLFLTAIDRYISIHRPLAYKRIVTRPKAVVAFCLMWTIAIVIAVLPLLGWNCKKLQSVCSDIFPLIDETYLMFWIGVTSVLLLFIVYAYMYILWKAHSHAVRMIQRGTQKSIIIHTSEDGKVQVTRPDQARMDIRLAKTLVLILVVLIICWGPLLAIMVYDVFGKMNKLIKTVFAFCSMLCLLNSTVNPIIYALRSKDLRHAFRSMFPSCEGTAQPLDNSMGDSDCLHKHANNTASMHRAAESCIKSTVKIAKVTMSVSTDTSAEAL
T1 sequence (P47746 whole entry): as above

| Compound | Agonism [1] | EC50 (Cannabinoid receptor 1 [2]) [µM] | also measured |
| --- | --- | --- | --- |
| CC1=CC(C(=O)NN2CCCCC2)=NS(=O)(=O)N1c1ccc(Cl)cc1 | inactive | – | – |
| O=C(NN1CCCCC1)C1=NS(=O)(=O)N(C2CCCCC2)C(c2ccc(Br)cc2)=C1 | – | 38.4 | – |
| Cc1cc(C2=CC(C(=O)NN3CCCCC3)=NS(=O)(=O)N2Cc2ccccc2)ccc1Cl | inactive | – | – |
| O=C(NN1CCOCC1)C1=NS(=O)(=O)N(Cc2ccccc2)C(c2ccc(Br)cc2)=C1 | inactive | – | – |
| CC1=CC(C(=O)NN2CCOCC2)=NS(=O)(=O)N1Cc1ccccc1 | inactive | – | – |
| CC12CCC(C1)C(C)(C)C2NC(=O)C1=NS(=O)(=O)N(Cc2ccc(Cl)cc2Cl)C(c2ccc(Cl)cc2)=C1 (stereo not given) | inactive | – | – |
| O=C(NN1CCCCC1)C1=NS(=O)(=O)N(Cc2ccc(Cl)cc2Cl)C(c2ccc(Br)cc2)=C1 | inactive | – | – |
| Cc1c(C(=O)NN2CCCCC2)nn(-c2ccc(Cl)cc2Cl)c1-c1ccc(Cl)cc1 | – | – | Antagonism [3]: Antagonist |
| CC1=CC(C(=O)NN2CCCCC2)=NS(=O)(=O)N1Cc1ccccc1 | inactive | – | – |
| CC12CCC(C1)C(C)(C)C2NC(=O)C1=NS(=O)(=O)N(Cc2ccccc2)C(c2ccc(Cl)cc2)=C1 (stereo not given) | – | 11.9 | Activity (Mus musculus [4]): Active; Activity (Mus musculus [5]): inactive |
| Cc1cc(C2=CC(C(=O)NC3C4(C)CCC(C4)C3(C)C)=NS(=O)(=O)N2Cc2ccccc2)ccc1Cl (stereo not given) | inactive | – | – |
| O=C(Nc1ccccc1)C1=NS(=O)(=O)N(Cc2ccccc2)C(c2ccc(Cl)cc2)=C1 | – | 5.73 | – |
| Cc1c(C(=O)c2cccc3ccccc23)c2cccc3c2n1[C@H](CN1CCOCC1)CO3 | – | – | Activity (Mus musculus [6]): Active; Activity (Mus musculus [7]): Active; Activity (Mus musculus [8]): Active; Activity (Mus musculus [9]): Active; Activity (Mus musculus [10]): Active |
| CCCCCCN1C(C)=CC(C(=O)NN2CCCCC2)=NS1(=O)=O | – | 36.9 | – |
| O=C(NN1CCCCC1)C1=NS(=O)(=O)N(Cc2ccccc2)C(c2ccc(Br)cc2)=C1 | inactive | – | – |
| CC1=CC(C(=O)NN2CCCCC2)=NS(=O)(=O)N1C1CCCCC1 | inactive | – | – |
| Cc1cc(C2=CC(C(=O)NC3CCCCC3)=NS(=O)(=O)N2Cc2ccc(Cl)cc2Cl)ccc1Cl | – | 36.9 | – |
| CCCCCCN1C(c2ccc(Cl)cc2)=CC(C(=O)NN2CCCCC2)=NS1(=O)=O | – | 8.44 | Kb (Cannabinoid receptor 1 [11]): 0.209 µM |
| O=C(NN1CCCCC1)C1=NS(=O)(=O)N(Cc2ccccc2)C(c2ccc(Cl)cc2)=C1 | – | 13.5 | Kb (Cannabinoid receptor 1 [11]): 0.12 µM; Antagonism [3]: Antagonist |
| CC1=CC(C(=O)NC2CCCCC2)=NS(=O)(=O)N1c1ccccc1 | inactive | – | – |
| O=C(NN1CCCCC1)C1=NS(=O)(=O)N(Cc2ccc(Cl)cc2Cl)C(c2ccc(Cl)cc2)=C1 | inactive | – | – |
